Key:
Test in all cases: combination Emax (second highest fraction inhibited in the dose matrix, 72 h); higher = more inhibition; extreme values may be limits of the assay
[1] = tested on: A2780 (Ovarian Carcinoma)
In short: (§1)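 Cell lines in DMEM/F12 or RPMI with 10% FBS were plated in 1536-well plates, held 24 hours at 37°C, 5% CO2, then given two-drug dose matrices for 72 hours (DMSO typically 0.2%). Viability was read by CellTiter-Glo 2.0 luminescence and scaled as inhibition from 0 (vehicle wells) to 1 (blank wells). Combination Emax is the second-highest inhibition in the matrix; Bliss excess is observed combination effect minus expected EA + EB − EA·EB, EA and EB being single-agent effects.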

IM-9 (Non-Cancerous) = tested on: IM-9 (Non-Cancerous)
In short: as §1

[2] = tested on: JHH-2 (Hepatocellular Carcinoma)
In short: as §1

[3] = tested on: KYSE-220 (Esophageal Squamous Cell Carcinoma)
In short: as §1

[4] = tested on: MHH-ES-1 (Ewing's Sarcoma)
In short: as §1

[5] = tested on: NCI-H1651 (Lung Adenocarcinoma)
In short: as §1

[6] = tested on: NCI-H441 (Lung Adenocarcinoma)
In short: as §1

SMILES | combination Emax [1] | combination Emax (IM-9 (Non-Cancerous)) | combination Emax [2] | combination Emax [3] | combination Emax [4] | combination Emax [5] | combination Emax [6]
C=CCn1c(=O)c2cnc(Nc3ccc(N4CCN(C)CC4)cc3)nc2n1-c1cccc(C(C)(C)O)n1 [AZD1775] + CCc1c2c(nc3ccc(O)cc13)-c1cc3c(c(=O)n1C2)COC(=O)[C@]3(O)CC [SN-38] (first compound max 1 µM, partner max 0.3 µM) | 0.94 | 1 | 0.76 | 0.909 | 0.985 | 0.86 | 0.685
C=CCn1c(=O)c2cnc(Nc3ccc(N4CCN(C)CC4)cc3)nc2n1-c1cccc(C(C)(C)O)n1 [AZD1775] + Nc1ccn([C@@H]2O[C@H](CO)[C@@H](O)C2(F)F)c(=O)n1 [Gemcitabine] (first compound max 1 µM, partner max 0.3 µM) | 0.963 | 1 | 0.735 | 0.793 | 0.983 | 0.762 | 0.55
CN(CCO)CC[C@H](CSc1ccccc1)Nc1ccc(S(=O)(=O)NC(=O)c2ccc(N3CCC([C@@H](O)c4ccccc4-c4ccc(Cl)cc4)CC3)cc2)cc1S(=O)(=O)C(F)(F)F [AZD4320] + CS(=O)(=O)CCNCc1ccc(-c2ccc3ncnc(Nc4ccc(OCc5cccc(F)c5)c(Cl)c4)c3c2)o1 [Lapatinib] (first compound max 1 µM, 7x7, partner max 10 µM) | 0.492 | 0.974 | 0.778 | 0.967 | 0.973 | 0.396 | 0.479
Cc1c2c(nn1C)CSCc1cc(n(C)n1)CSc1cc(c3ccccc3c1)OCCCc1c(C(=O)O)n(C)c3c-2c(Cl)ccc13 [AZD5991] + CC(=O)O[C@H]1C(=O)[C@@]2(C)[C@H]([C@H](OC(=O)c3ccccc3)[C@]3(O)C[C@H](OC(=O)[C@H](O)[C@@H](NC(=O)c4ccccc4)c4ccccc4)C(C)=C1C3(C)C)[C@]1(OC(C)=O)CO[C@@H]1C[C@@H]2O [Paclitaxel] (first compound max 1 µM, 7x7, partner max 3 µM) | 1 | 1 | 0.783 | 0.745 | 0.965 | 0.912 | 0.401
Cc1c2c(nn1C)CSCc1cc(n(C)n1)CSc1cc(c3ccccc3c1)OCCCc1c(C(=O)O)n(C)c3c-2c(Cl)ccc13 [AZD5991] + CS(=O)(=O)CCNCc1ccc(-c2ccc3ncnc(Nc4ccc(OCc5cccc(F)c5)c(Cl)c4)c3c2)o1 [Lapatinib] (first compound max 1 µM, 7x7, partner max 10 µM) | 0.933 | 0.93 | 0.446 | 0.933 | 0.58 | 0.307 | 0.229
Cc1c2c(nn1C)CSCc1cc(n(C)n1)CSc1cc(c3ccccc3c1)OCCCc1c(C(=O)O)n(C)c3c-2c(Cl)ccc13 [AZD5991] + Nc1ccn([C@@H]2O[C@H](CO)[C@@H](O)C2(F)F)c(=O)n1 [Gemcitabine] (first compound max 1 µM, 7x7, partner max 0.3 µM) | 1 | 1 | 0.483 | 0.724 | 0.935 | 0.486 | 0.519
C[C@@H]1COCCN1c1cc(C2([S@](C)(=N)=O)CC2)nc(-c2ccnc3[nH]ccc23)n1 [AZD6738] + C1CC(C1)(C(=O)[O-])C(=O)[O-].N.N.[Pt+2] [Carboplatin] (first compound max 10 µM, 7x7, partner max 10 µM) | 0.81 | 0.966 | 0.507 | 0.827 | 0.51 | 0.641 | 0.394
C[C@@H]1COCCN1c1cc(C2([S@](C)(=N)=O)CC2)nc(-c2ccnc3[nH]ccc23)n1 [AZD6738] + Nc1ccn([C@@H]2O[C@H](CO)[C@@H](O)C2(F)F)c(=O)n1 [Gemcitabine] (first compound max 10 µM, 7x7, partner max 0.3 µM) | 0.95 | 1 | 0.716 | 0.857 | 0.995 | 0.747 | 0.568
C[C@@H](Nc1cc(F)cc(F)c1)c1cc(C(=O)N(C)C)cc2c(=O)cc(N3CCOCC3)oc12 [AZD8186] + C1CN(CCC1(C(=O)N[C@@H](CCO)C2=CC=C(C=C2)Cl)N)C3=NC=NC4=C3C=CN4 [AZD5363] (first compound max 10 µM, 7x7, partner max 10 µM) | 0.784 | 0.57 | 0.716 | 0.445 | 0.358 | 0.112 | 0.28
C[C@@H](Nc1cc(F)cc(F)c1)c1cc(C(=O)N(C)C)cc2c(=O)cc(N3CCOCC3)oc12 [AZD8186] + CC(=O)c1c(C)c2cnc(Nc3ccc(N4CCNCC4)cn3)nc2n(C2CCCC2)c1=O [Palbociclib] (first compound max 10 µM, 7x7, partner max 10 µM) | 0.835 | 0.682 | 0.693 | 0.38 | 0.602 | 0.17 | 0.447

From the supplement of paper PMC11061612
